The target in one test is T1, human TRPA1 (Homo sapiens, UniProt O75762).
T1 construct: Life Technologies (cells); host or cells: Flp-In T-REx HEK-293
Description: Calcium 5 dye [Ca]i assay in HEK-293 Flp-In T-REx cells expressing TRPA1 (agonist response). Type of test: cell-based. To be noted: for Elevation of [Ca]i in HEK-293 TRPA1 cells compared with HEK-293 EV cells: 10 µM (cinnamaldehyde 300 µM); for Change of Ca5 fluorescence, Mean ± SEM, TRPA1 (10 µM): HEK-293 TRPA1 cells, percentage of predrug baseline; for TRPA1 activation at the highest concentration tested: 30 µM; for Emax at 30 µM: HEK293, read-out: Emax ± SEM % TRPA1 (30 µM); for [Ca]i response (change in fluorescence), individual replicates: sheet Figure 4. Put shortly: (§1)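 Tetracycline-induced (1 µg ml^−1, 4 h) HEK-293 T-REx cells loaded with Calcium 5 dye plus 1.25 mM probenecid for 1 h; agonist added after 1 min baseline (0.1% DMSO final), fluorescence (485/525 nm) read every 2 s for 5 min at 37 °C. Response as % change from baseline, solvent-subtracted; EC50/Emax from three-parameter logistic fit, given as pEC50.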

Test [1] addresses T2, human TRPV1 (Homo sapiens, UniProt Q8NER1).
T2 construct: Life Technologies (cells); host or cells: Flp-In T-REx HEK-293
The test can be described thus: PMA (phorbol ester) potentiation of TRPV1 responses in HEK-293 TRPV1 cells. Type of test: cell-based. Also on record: key to Drugs alone, individual experiments: change in [Ca]i as % of pre-drug baseline. The method, then:
(§2) Intracellular calcium [Ca]i levels were assessed using the calcium 5 kit from Molecular Devices (# R8186, Sunnyvale, CA, USA) on a FlexStation 3 Microplate Reader (Molecular Devices, Sunnyvale, CA, USA). […] Probenecid (cat # 50027; Biotium) which helps to prevent expulsion of calcium indicator from the cells was added to a final concentration of 1.25 mM. 90 µL of the dye were loaded into each well of the plate and incubated for 1 h before reading in the FlexStation 3 at 37 °C. Fluorescence was recorded every 2 s (λ excitation = 485 nm, λ emission = 525 nm) for 5 min. After 1 min of baseline recording, 20 µL of the drug, dissolved in HBSS with 1% dimethyl sulfoxide (DMSO) (cat # D2650; Sigma-Aldrich, Melbourne, Australia) was added (final DMSO concentration was 0.1% in well).
We initially determined the effect of PMA, another phorbol ester that is a protein kinase C activator ([Jiang & Fleet, 2012]) on HEK-293 TRPV1 expressing cells.
(A) Response of HEK-293 TRPV1 expressing cells for PMA at various concentration. […] Drugs were added for the duration of the bar; (D) The effects of PUFAs after potentiation of TRPV1 by PMA. […] Changes in [Ca]i are expressed as percentage of the pre-drug baseline, with the response to PMA alone at 5 min subtracted. The black circles represent the response of PUFAs without PMA pretreatment while the pink circles represent the response of PUFAs after PMA potentiation.

Test [2] has as its target T2, human TRPV1. The test can be described thus: Pre-incubation with PUFAs or capsazepine, then capsaicin (10 nM) response in HEK-293 TRPV1 cells. To be noted: for Effect of pre-treatment on the capsaicin response: 10 µM, 5 min exposure, then capsaicin 10 nM; for Post-capsaicin: response to subsequent capsaicin addition, individual experiments: capsaicin 10 nM after 5 min drug 10 µM; for Post-capsaicin: response to subsequent capsaicin addition, individual experiments / Pre-capsaicin: response to first drug, individual experiments: TRPV1 cells; for Pre-capsaicin: response to first drug, individual experiments: drug 10 µM for 5 min. Type of test: cell-based. As to the method:
as §2, with “well). […]” for “well).”

The subject of the next test is HEK-293 EV cells. The test can be described thus: Calcium 5 dye [Ca]i assay in HEK-293 empty vector (EV) cells. Type of test: cell-based, human. To be noted: 10 µM; HEK-293 EV cells; percentage of predrug baseline. Put shortly: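 Tetracycline at 1 µg ml^−1 was added 4 h before testing; cells were loaded with Calcium 5 dye for 1 h and read at 37 °C, with drug added after 1 min baseline (final 0.1% DMSO). The response was the % change from the 60 s baseline after solvent subtraction, and EC50/Emax came from a three-parameter logistic fit, reported as pEC50.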

The target in test [3] is T2, human TRPV1. The test can be described thus: Calcium 5 dye [Ca]i assay in HEK-293 Flp-In T-REx cells expressing TRPV1 (agonist response). Type of test: cell-based. To be noted: for Elevation of [Ca]i in HEK-293 TRPV1 cells compared with HEK-293 EV cells / Change of Ca5 fluorescence, Mean ± SEM, TRPV1 (10 µM): 10 µM; for Change of Ca5 fluorescence, Mean ± SEM, TRPV1 (10 µM): HEK-293 TRPV1 cells, percentage of predrug baseline; for Change in Ca5 fluorescence, individual experiments (CRC raw data): TRPV1 cells. Put shortly: as §1

“And” between values parts separate entries of the source, which are not always exact repeats. Identical values can stand only once. Like-named read-outs stand apart in the source and are kept apart here.

T2 sequence (Q8NER1 whole entry): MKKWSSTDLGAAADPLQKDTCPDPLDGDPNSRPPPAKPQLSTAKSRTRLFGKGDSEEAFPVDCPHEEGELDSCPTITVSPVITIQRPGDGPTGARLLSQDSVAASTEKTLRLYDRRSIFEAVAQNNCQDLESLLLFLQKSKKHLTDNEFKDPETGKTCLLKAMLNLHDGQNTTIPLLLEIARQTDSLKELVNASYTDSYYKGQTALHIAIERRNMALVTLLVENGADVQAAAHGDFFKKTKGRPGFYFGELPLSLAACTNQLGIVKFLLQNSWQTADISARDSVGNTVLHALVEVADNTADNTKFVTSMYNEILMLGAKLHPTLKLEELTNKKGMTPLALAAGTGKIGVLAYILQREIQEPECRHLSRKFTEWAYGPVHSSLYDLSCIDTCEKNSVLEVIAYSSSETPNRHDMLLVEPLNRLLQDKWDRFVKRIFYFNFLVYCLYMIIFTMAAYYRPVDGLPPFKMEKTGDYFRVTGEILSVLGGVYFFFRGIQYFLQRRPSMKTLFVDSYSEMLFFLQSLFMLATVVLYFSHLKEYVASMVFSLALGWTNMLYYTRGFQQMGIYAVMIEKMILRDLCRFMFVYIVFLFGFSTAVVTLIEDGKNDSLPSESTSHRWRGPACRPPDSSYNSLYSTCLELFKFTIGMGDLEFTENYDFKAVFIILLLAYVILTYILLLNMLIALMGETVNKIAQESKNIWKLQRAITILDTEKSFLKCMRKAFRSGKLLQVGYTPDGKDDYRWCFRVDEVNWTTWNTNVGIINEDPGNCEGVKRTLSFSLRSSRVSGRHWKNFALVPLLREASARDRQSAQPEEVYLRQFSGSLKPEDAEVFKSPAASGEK
T1 sequence (O75762 whole entry): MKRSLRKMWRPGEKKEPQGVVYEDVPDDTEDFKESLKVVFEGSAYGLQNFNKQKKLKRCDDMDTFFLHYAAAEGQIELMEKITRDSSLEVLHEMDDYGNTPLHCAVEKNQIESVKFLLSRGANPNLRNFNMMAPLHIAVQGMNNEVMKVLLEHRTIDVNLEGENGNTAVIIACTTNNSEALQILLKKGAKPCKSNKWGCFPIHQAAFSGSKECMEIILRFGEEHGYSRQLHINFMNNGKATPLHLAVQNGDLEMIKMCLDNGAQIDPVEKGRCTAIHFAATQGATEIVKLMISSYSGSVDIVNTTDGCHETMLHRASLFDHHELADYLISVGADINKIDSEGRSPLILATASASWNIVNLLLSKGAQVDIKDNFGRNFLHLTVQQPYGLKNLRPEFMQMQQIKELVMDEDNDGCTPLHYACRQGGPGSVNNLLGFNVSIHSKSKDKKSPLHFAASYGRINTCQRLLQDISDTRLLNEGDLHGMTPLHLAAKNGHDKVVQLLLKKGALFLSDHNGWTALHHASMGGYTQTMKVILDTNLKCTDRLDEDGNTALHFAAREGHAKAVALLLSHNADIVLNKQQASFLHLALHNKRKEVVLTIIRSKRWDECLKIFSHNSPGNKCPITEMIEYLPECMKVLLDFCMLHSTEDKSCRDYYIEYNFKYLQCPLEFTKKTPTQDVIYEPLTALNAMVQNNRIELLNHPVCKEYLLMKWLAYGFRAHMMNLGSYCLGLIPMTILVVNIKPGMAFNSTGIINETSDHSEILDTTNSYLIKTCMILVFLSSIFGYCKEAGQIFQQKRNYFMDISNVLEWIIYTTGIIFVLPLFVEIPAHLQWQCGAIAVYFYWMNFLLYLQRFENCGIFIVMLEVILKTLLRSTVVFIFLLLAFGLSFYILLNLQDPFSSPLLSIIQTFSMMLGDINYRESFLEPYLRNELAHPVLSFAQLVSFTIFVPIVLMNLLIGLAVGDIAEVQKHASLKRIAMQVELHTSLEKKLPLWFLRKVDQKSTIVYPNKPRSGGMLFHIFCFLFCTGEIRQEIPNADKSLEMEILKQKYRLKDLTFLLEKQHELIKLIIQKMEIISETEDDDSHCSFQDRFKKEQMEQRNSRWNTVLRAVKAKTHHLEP

For the compound `CC/C=C\C/C=C\C/C=C\C/C=C\C/C=C\C/C=C\CCC(=O)O` [DHA, docosahexaenoic acid], on human TRPA1, the “Elevation of [Ca]i in HEK-293 TRPA1 cells compared with HEK-293 EV cells” value is recorded as “did not produce a change”. In addition, the “Change of Ca5 fluorescence, Mean ± SEM, TRPA1 (10 µM)” value at human TRPA1 was 129 ± 81%. Moreover, the “TRPA1 activation at the highest concentration tested” value on human TRPA1 is “activated TRPA1”. Further, the Emax at 30 µM turned out to be 408 ± 54% at human TRPA1 (highest tested concentration (30 µM) or derived from concentration-response curves (cinnamaldehyde)) and 29 ± 0.8% at human TRPV1 [3] (HEK293, read-out: Emax ± SEM % TRPV1 (30 µM)). Further, the “[Ca]i response (change in fluorescence), individual replicates” value is 600.618 and 528.86 and 310.75 and 311.859 and 419.884 and 278.355 on human TRPA1 (concentration -4.52288 (log)); 508.031 and 185.633 and 12.6409 and 8.196 and 18.5259 and 39.1466 on human TRPA1 (concentration -5 (log)); 5.528 and 1.551 and 4.973 and 2.123 at human TRPA1 (concentration -5.52288 (log)); 3.48 and 2.006 and 3.985 and 2.738 and 3.1287 and 4.255 at human TRPA1 (concentration -6 (log)); 7.112 and 0.3749 and 2.033 and 5.1389 at human TRPA1 (concentration -6.52288 (log)); 8.809 and 1.203 and 5.563 and 5.621 on human TRPA1 (concentration -7 (log)). Further, on human TRPV1 [1] (PMA 100 nM, 5 min pretreatment), the “TRPV1 response after exposure to PMA” value is “only observed when a phorbol ester was present”. Further, the “Drugs post-PMA, individual experiments” value at human TRPV1 [1] (PUFA 10 µM after PMA 100 nM for 5 min, response to PMA alone subtracted) was 50.0906 and 48.3811 and 19.3352 and 66.6517 and 32.7216 and 44.0204 and 2.991. Also, the “Drugs alone, individual experiments” value on human TRPV1 [1] (PUFA 10 µM without PMA pretreatment, TRPV1 cells) is 3.985 and 5.867 and 0 and 3.833 and 0.4866 and -0.286 and 0.9124 and 2.207. Moreover, the “Effect of pre-treatment on the capsaicin response” value on human TRPV1 [2] is on record as “did not affect”. On human TRPV1 [2], the “Post-capsaicin: response to subsequent capsaicin addition, individual experiments” value is 262.478 and 230.552 and 119.965 and 325.766 and 236.554 and 370.087. Further, on human TRPV1 [2], the “Pre-capsaicin: response to first drug, individual experiments” value is 15.3316 and 14.4172 and 9.221 and 4.601 and 11.1415 and 4.871. For the same compound, in the test with HEK-293 EV cells, the “Change of Ca5 fluorescence, Mean ± SEM, EV (10 µM)” value was 11 ± 2%. Further, the “Elevation of [Ca]i in HEK-293 TRPV1 cells compared with HEK-293 EV cells” value on human TRPV1 [3] was “did not produce a notable change”. Moreover, the “Change of Ca5 fluorescence, Mean ± SEM, TRPV1 (10 µM)” value on human TRPV1 [3] turned out to be 11 ± 2%. Moreover, the “Change in Ca5 fluorescence, individual experiments (CRC raw data)” value at human TRPV1 [3] (log concentration -4.52288 (M)) is 30.4293 and 29.6434 and 28.2029 and 25.9718 and 28.1927 and 31.4702; at human TRPV1 [3] (log concentration -5 (M)), 15.398 and 14.8517 and 2.207 and 13.9869 and 10.4035 and 11.2548; on human TRPV1 [3] (log concentration -5.52288 (M)) it was 5.597 and 6.862 and 1.798 and 7.576; at human TRPV1 [3] (log concentration -6 (M)), 1.539 and 8.081 and 1.374 and 8.45 and 6.148 and 5.676; on human TRPV1 [3] (log concentration -6.52288 (M)), 0.111 and 3.665 and 0.7828 and 7.557; at human TRPV1 [3] (log concentration -7 (M)), 8.793 and 7.902 and 1.12 and 9.145.
For the compound `CCCCC/C=C\C/C=C\C/C=C\CCCCC(=O)O` [γ-LA, γ-linolenic acid], at human TRPA1, the “Elevation of [Ca]i in HEK-293 TRPA1 cells compared with HEK-293 EV cells” value is “did not produce a change”. In addition, the “Change of Ca5 fluorescence, Mean ± SEM, TRPA1 (10 µM)” value on human TRPA1 was 112 ± 61%. On human TRPA1, the “TRPA1 activation at the highest concentration tested” value is on record as “activated TRPA1”. In addition, on human TRPA1, the Emax at 30 µM was found to be 255 ± 73%. For the same compound, the “[Ca]i response (change in fluorescence), individual replicates” value was 481.429 and 335.153 and 71.3202 and 67.3187 and 162.48 and 414.065 at human TRPA1 (concentration -4.52288 (log), listed as GLA); 268.343 and 23.3711 and 10.7965 and 8.59 and 23.2369 and 338.225 at human TRPA1 (concentration -5 (log), listed as GLA); 2.578 and 5.507 and 0.9073 and 7.069 and 268.915 on human TRPA1 (concentration -5.52288 (log), listed as GLA); 0.8222 and 0.07304 and 2.068 and 3.637 and 4.16 and 7.0167 on human TRPA1 (concentration -6 (log), listed as GLA); 0.1101 and 1.014 and 7.308 and 0.3513 and 4.285 and 9.421 at human TRPA1 (concentration -6.52288 (log), listed as GLA); 0.1516 and -0.4942 and 5.21 and 2.462 and 4.3545 and 5.724 at human TRPA1 (concentration -7 (log), listed as GLA). Also, the “Effect of pre-treatment on the capsaicin response” value at human TRPV1 [2] is reported as “did not affect”. In addition, on human TRPV1 [2] (listed as GLA), the “Post-capsaicin: response to subsequent capsaicin addition, individual experiments” value was 270.139 and 251.245 and 119.532 and 316.43 and 265.849 and 338.308. Moreover, on human TRPV1 [2] (listed as GLA), the “Pre-capsaicin: response to first drug, individual experiments” value is 11.5745 and 14.3439 and 14.381 and 3.4398 and 10.3554 and 15.8417. The “Change of Ca5 fluorescence, Mean ± SEM, EV (10 µM)” value in the test on HEK-293 EV cells is reported as 9 ± 2%. The “Elevation of [Ca]i in HEK-293 TRPV1 cells compared with HEK-293 EV cells” value at human TRPV1 [3] is listed as “did not produce a notable change”. The “Change of Ca5 fluorescence, Mean ± SEM, TRPV1 (10 µM)” value on human TRPV1 [3] was found to be 10 ± 1%. Besides, the “Change in Ca5 fluorescence, individual experiments (CRC raw data)” value on human TRPV1 [3] (log concentration -4.52288 (M), listed as GLA) is 27.0827 and 92.1911 and 21.8805 and 27.2504 and 40.8812 and 31.4387; at human TRPV1 [3] (log concentration -5 (M), listed as GLA) it was 15.417 and 9.771 and 8.536 and 10.7081 and 5.47 and 8.301; on human TRPV1 [3] (log concentration -5.52288 (M), listed as GLA), 2.0403 and 1.257 and 4.6526 and 4.706 and 2.248 and 2.361; at human TRPV1 [3] (log concentration -6 (M), listed as GLA), 3.899 and 2.392 and 3.26 and 4.994 and 2.614 and 2.892; at human TRPV1 [3] (log concentration -6.52288 (M), listed as GLA), -0.6308 and 4.773 and 3.415 and 10.3597 and 1.966 and 2.796; on human TRPV1 [3] (log concentration -7 (M), listed as GLA), 0.359 and 3.081 and 7.321 and 1.04 and 2.553.

These data come from PMC11949107, “Polyunsaturated fatty acids and their endocannabinoid-related metabolites activity at human TRPV1 and TRPA1 ion channels expressed in HEK-293 cells” (PeerJ, 2025).
